Results reported in US10781162B2 (UCL BUSINESS Ltd, priority 2016, dated 2020).

Assays:
[1] = H2S gas detection assay (H2S gas release in PBS); format: physicochemical; details: for quantity of H2S gas released under standard conditions: PBS, pH 7.4, 37° C., incubation 1 hour, FIG. 12A
From the text: A, B and C denote the synthetic route of manufacture of DEA-TTM, with respect to FIG. 6.
If the sample is drawn in the latter part of the 10-second bin, the second or third reading may be the highest. A direct correlation ([…], straight line model, r^2=0.992; see FIG. 11) was observed on comparing the peak H2S value against the sum of the washout readings (decay) over time (area under curve, AUC). As the time to washout and the sum of values therein are directly proportional to the peak quantity of gas initially detected, it is appropriate to consider only the peak H2S gas level to determine the total amount of H2S gas release.
Initial testing of DEA-TTM salts A, B and C was carried out under standard conditions (dissolution in PBS, pH 7.4, incubation for 1 hour). […] Acidic conditions are shown to favour sulfide release.

[2] = Procedure: The in vitro dissolution and aqueous solubility behaviour at 25° C. was also investigated for the DEA-TTM salts synthesised by routes A, B and C as outlined in Example 1.5 above (Almac Sciences, Northern Ireland).
[3] = In vitro dissolution and aqueous solubility study in distilled water
Procedure: The dissolution experiment was carried out in triplicate on both the diethyl tetrathiomolybdate salt and the ammonium tetrathiomolybdate salt.

CC[NH2+]CC.CC[NH2+]CC.[S]=[Mo](=[S])([S-])[S-] [diethylamine tetrathiomolybdate]
quantity of H2S gas released under standard conditions ([1]; listed as salt B): released the least H2S gas
quantity of H2S gas released under standard conditions ([1]; listed as salt C): released the most H2S gas

[NH4+].[NH4+].[SH-].[SH-].[S]=[Mo]=[S] [ATTM, ammonium tetrathiomolybdate]
solubility in water at 25° C. [2]: 2000 µg/mL
solubility in distilled water [3]: ca. 2 mg/ml
dissolution time ([3]; distilled water): over 1 hour
thiol dependence of H2S release (increase, in words) ([1]; for reference): six-fold increase
